The results in this text go back to patent US7601868B2, “Amine derivative” (Takeda Pharmaceutical Company Limited, priority 2003, dated 2009).

As usually defined, the melting point is the temperature of the solid-liquid transition.

`O=C(Cc1ccc(CN2CCCC2)cc1)NCc1ccc(-c2ccc(Cl)cc2)cc1` [compound 39, N-[(4′-chloro-1,1′-biphenyl-4-yl)methyl]-2-[4-(1-pyrrolidinylmethyl)phenyl]acetamide] yielded a melting point of 151 to 153 °C. To `CC(c1ccc(CCNC(=O)c2ccc(-c3ccc(Cl)cc3)cc2)cc1)N1CCSCC1` (stereo not shown) [Example 37, 4′-chloro-N-(2-{4-[1-(4-thiomorpholinyl)ethyl]phenyl}ethyl)[1,1′-biphenyl]-4-carboxamide] belongs 168 to 169 °C.

Turning to `CC(c1ccc(CCNC(=O)c2ccc(-c3ccc(C(F)(F)F)cc3)cc2)cc1)N1CCCC1` (stereo not shown) [Example 15, N-(2-{4-[1-(1-pyrrolidinyl)ethyl]phenyl}ethyl)-4′-(trifluoromethyl)[1,1′-biphenyl]-4-carboxamide], the melting point lay in the range of 149 to 151 °C. For the compound `COc1ccc(-c2ccc(C(=O)NCCc3ccc(C(C)N4CCCC4)cc3)cc2)cc1` (stereo not shown) [Example 12, 4′-methoxy-N-(2-{4-[1-(1-pyrrolidinyl)ethyl]phenyl}ethyl)[1,1′-biphenyl]-4-carboxamide], the melting point is 163 to 165 °C. To `O=C(NCCc1ccc(CN2CCCC2)cc1)N1CCC(c2ccc(Cl)cc2)CC1` [Example 1, 4-(4-chlorophenyl)-N-{2-[4-(1-pyrrolidinylmethyl)phenyl]ethyl}-1-piperidinecarboxamide] belongs 116 to 117 °C. To `O=C(/C=C/c1ccc(CN2CCCC2)cc1)Nc1ccc(-c2ccc(Cl)cc2)cc1` [compound 44, (E)-N-(4′-chloro-1,1′-biphenyl-4-yl)-3-[4-(1-pyrrolidinylmethyl)phenyl]-2-propenamide] belongs 207 to 209 °C; to `O=C(COc1ccc(CN2CCCC2)cc1)Nc1ccc(Br)cc1` [Reference Example 46, N-(4-bromophenyl)-2-[4-(1-pyrrolidinylmethyl)phenoxy]acetamide], 143 to 145 °C. As for `CCCCCc1ccc(C(=O)NCC(C)c2ccc(CN3CCCC3)cc2)cc1` (stereo not shown) [Example 9, 4-pentyl-N-{2-[4-(1-pyrrolidinylmethyl)phenyl]propyl}benzamide], the melting point is 91 to 92 °C. As to `CC(CNC(=O)c1ccc(-c2ccc(Cl)cc2)cc1F)c1ccc(CN2CCCC2)cc1` (stereo not shown) [Example 6, 4′-chloro-3-fluoro-N-{2-[4-(1-pyrrolidinylmethyl)phenyl]propyl}[1,1′-biphenyl]-4-carboxamide], the melting point lay within 119 to 121 °C. On to `CC(c1ccc(CCNC(=O)c2ccc(-c3ccc(Cl)cc3)cc2)cc1)N1CCCC1` (stereo not shown) [Example 11, 4′-chloro-N-(2-{4-[1-(1-pyrrolidinyl)ethyl]phenyl}ethyl)[1,1′-biphenyl]-4-carboxamide], for which the melting point lay within 152 to 153 °C. `CC(c1ccc(CCNC(=O)c2ccc(-c3ccccc3)cc2)cc1)N1CCCC1` (stereo not shown) [Example 31, N-(2-{4-[1-(1-pyrrolidinyl)ethyl]phenyl}ethyl)[1,1′-biphenyl]-4-carboxamide] yielded a melting point of 136 to 138 °C. Turning to `COc1ccc(-c2ccc(C(=O)NCCc3ccc(C4CCCN4C)cc3)cc2)cc1` (stereo not shown) [Example 139, 4′-methoxy-N-{2-[4-(1-methyl-2-pyrrolidinyl)phenyl]ethyl}[1,1′-biphenyl]-4-carboxamide], the melting point is 165 to 167 °C. As to `CCC(c1ccc(CCNC(=O)c2ccc(-c3ccc(Cl)cc3)cc2)cc1)N1CCCC1` (stereo not shown) [Example 33, 4′-chloro-N-(2-{4-[1-(1-pyrrolidinyl)propyl]phenyl}ethyl)[1,1′-biphenyl]-4-carboxamide], the melting point is 151 to 153 °C. `O=C(CCc1ccc(CN2CCCC2)cc1)Nc1ccc(-c2ccc(Cl)cc2)cc1` [compound 42, N-(4′-chloro-1,1′-biphenyl-4-yl)-3-[4-(1-pyrrolidinylmethyl)phenyl]propanamide] came in with a melting point of 179 to 181 °C. Compound `CCCC(=O)Cc1ccc(C(=O)NCCc2ccc(CN3CCCC3)cc2)cc1` [Example 4, 4-(2-oxopentyl)-N-{2-[4-(1-pyrrolidinylmethyl)phenyl]ethyl}benzamide] returned a melting point of 115 to 117 °C. For the compound `CN1CCCC1c1ccc(CCNC(=O)c2ccc(-c3ccc(Cl)cc3)cc2)cc1` (stereo not shown) [Example 137, 4′-chloro-N-{2-[4-(1-methyl-2-pyrrolidinyl)phenyl]ethyl}[1,1′-biphenyl]-4-carboxamide], the melting point was 169 to 171 °C. Next, `O=C(NCCc1ccc(CN2CCCC2)cc1)c1ccc(OCC2CC2)cc1F` [Example 140, 4-cyclopropylmethoxy-2-fluoro-N-{2-[4-(1-pyrrolidinylmethyl)phenyl]ethyl}benzamide]: 90 to 92 °C; `CCCCCc1ccc(C(=O)NCCc2ccc(C(C)N3CCCC3)cc2)cc1` (stereo not shown) [Example 38, 4-pentyl-N-(2-{4-[1-(1-pyrrolidinyl)ethyl]phenyl}ethyl)benzamide]: 76 to 77 °C. `O=C(Cc1ccc(CN2CCCC2)cc1)NCc1ccc(Br)cc1` [Reference Example 38, N-(4-bromobenzyl)-2-[4-(1-pyrrolidinylmethyl)phenyl]acetamide]: the melting point fell in the range of 107 to 109 °C. With `CC(C)C(c1ccc(CCNC(=O)c2ccc(-c3ccc(Cl)cc3)cc2)cc1)N1CCCC1` (stereo not shown) [Example 36, 4′-chloro-N-(2-{4-[2-methyl-1-(1-pyrrolidinyl)propyl]phenyl}ethyl)[1,1′-biphenyl]-4-carboxamide], the melting point is 143 to 145 °C. In the case of `CC(c1ccc(CCNC(=O)c2ccc(-c3ccc(F)cc3)cc2)cc1)N1CCCC1` (stereo not shown) [Example 13, 4′-fluoro-N-(2-{4-[1-(1-pyrrolidinyl)ethyl]phenyl}ethyl)[1,1′-biphenyl]-4-carboxamide], the melting point was in the range of 141 to 143 °C.

As for `CN1CCCC1c1ccc(CCNC(=O)c2ccc(OCC3CC3)cc2)cc1` (stereo not shown) [Example 138, 4-cyclopropylmethoxy-N-{2-[4-(1-methyl-2-pyrrolidinyl)phenyl]ethyl}benzamide], the melting point is 143 to 145 °C. To `CC(CNC(=O)c1ccc(Br)cc1F)c1ccc(CN2CCCC2)cc1` (stereo not shown) [Example 5, 4-bromo-2-fluoro-N-{2-[4-(1-pyrrolidinylmethyl)phenyl]propyl}benzamide] belongs 80 to 82 °C; to `O=C(CCc1ccc(CN2CCCC2)cc1)Nc1ccc(Br)cc1` [Reference Example 41, N-(4-bromophenyl)-3-[4-(1-pyrrolidinylmethyl)phenyl]propanamide], 137 to 138 °C; to `CC(CNC(=O)c1ccc(-c2ccc(Cl)cc2)cc1)c1ccc(CN2CCCC2)cc1` (stereo not shown) [Example 8, 4′-chloro-N-{2-[4-(1-pyrrolidinylmethyl)phenyl]propyl}[1,1′-biphenyl]-4-carboxamide], 156 to 157 °C. Regarding `Cc1ccc(-c2ccc(C(=O)NCCc3ccc(C(C)N4CCCC4)cc3)cc2)cc1` (stereo not shown) [Example 14, 4′-methyl-N-(2-{4-[1-(1-pyrrolidinyl)ethyl]phenyl}ethyl)[1,1′-biphenyl]-4-carboxamide], the melting point lay within 160 to 163 °C. `O=C(NCCc1ccc(CN2CCCC2)cc1)c1ccc(OCCC2CC2)cc1F` [Example 141, 4-(2-cyclopropylethoxy)-2-fluoro-N-{2-[4-(1-pyrrolidinylmethyl)phenyl]ethyl}benzamide] displayed a melting point of 66 to 68 °C. `CCCCCc1ccc(NC(=O)CCc2ccc(CN3CCCC3)cc2)cc1` [compound 40, N-(4-pentylphenyl)-3-[4-(1-pyrrolidinylmethyl)phenyl]propanamide] registered a melting point of 104 to 105 °C. Turning to `O=C(NCCc1ccc(-c2ccc(Cl)cc2)cc1)c1ccc(CN2CCCC2)cc1` [compound 45, N-[2-(4′-chloro-1,1′-biphenyl-4-yl)ethyl]-4-(1-pyrrolidinylmethyl)benzamide], the melting point was 187 to 189 °C. In the case of `CC(c1ccc(CCNC(=O)c2ccc(Br)cc2)cc1)N1CCCC1` (stereo not shown) [Example 10, 4-bromo-N-(2-{4-[1-(1-pyrrolidinyl)ethyl]phenyl}ethyl)benzamide], the melting point was 124 to 126 °C. Turning to `O=C(/C=C/c1ccc(CN2CCCC2)cc1)Nc1ccc(Br)cc1` [Reference Example 43, (E)-N-(4-bromophenyl)-3-[4-(1-pyrrolidinylmethyl)phenyl]-2-propenamide], the melting point lay in the range of 184 to 186 °C. Next, `CCC(c1ccc(CCNC(=O)c2ccc(Br)cc2)cc1)N1CCCC1` (stereo not shown) [Example 32, 4-bromo-N-(2-{4-[1-(1-pyrrolidinyl)propyl]phenyl}ethyl)benzamide]: 90 to 92 °C. For `CCCCCc1ccc(C(=O)NCCc2ccc(CN3CCCC3)cc2)cc1` [Example 3, 4-pentyl-N-{2-[4-(1-pyrrolidinylmethyl)phenyl]ethyl}benzamide], the melting point lay in the range of 91 to 93 °C. As for `CC(c1ccc(CCNC(=O)c2ccc(-c3ccc(OC(F)(F)F)cc3)cc2)cc1)N1CCCC1` (stereo not shown) [Example 16, N-(2-{4-[1-(1-pyrrolidinyl)ethyl]phenyl}ethyl)-4′-(trifluoromethoxy)[1,1′-biphenyl]-4-carboxamide], the melting point fell in the range of 135 to 137 °C.
